Measurements: US10702512B2, “Treatment of debilitating fatigue” (A. CARLSSON RESEARCH AB, priority 2015, dated 2020)

How the values were obtained:
ME/CFS patients = assay: Beck Depression Inventory (BDI) total score, phase II clinical study; assay type: in vivo, human; conditions: 2-way ANOVA, OSU6162 vs placebo
Experimental: Circular coated tablets for oral use of 15 mg and matching placebos was used. The tablets were administered by research nurses at the study site. The tablets were circular coated tablets for oral use containing 15 mg OSU6162. Matching placebos were used. The start dose was 15 mg OSU6162 twice daily (before breakfast and lunch) during 1 week with dose increase up to 30 mg twice daily during the following week. Additionally, the clinical effect was evaluated using the FF-scale, The Beck/BDI scale, VAS pain scale and with neuropsychological tests. To examine the effect of treatment and concomitant use of an antidepressant, antidepressant was included as a fixed factor in the analyses. […] Outcome targets FF, MFS and BDI were measured.

water solubility = assay type: physicochemical; conditions: hydrochloride, white powder
Experimental: The investigated substance is the S enantiomer with the chemical name (S)-3-[3-(methylsulfonyl) phenyl]-1-propylpiperidine hydrochloride, referred herein to as OSU6162. The substance is a white powder with a melting point of 177-182° C. and water solubility of >2000 mg/ml.

solubility (water solubility): > 2000 mg/mL
Structure (SMILES): CCCN1CCC[C@@H](c2cccc(S(C)(=O)=O)c2)C1.Cl [OSU6162, (3S)-3-[3-(methylsulfonyl)-phenyl]-1-propylpiperidine hydrochloride]
BDI main effect of treatment (ME/CFS patients): None
